Measurements published in US20240148002A1, “BIOCIDAL COMPOSITIONS CONTAINING COPPER AND A CO-BIOCIDE” (CORNING INCORPORATED, priority 2021, published 2024).

Test system: Pseudomonas aeruginosa (P. aeruginosa)
Assay: Minimum bactericidal concentration (MBC) test: serial dilutions in thickened Letheen Broth, plating and colony count
Assay type: cell-based
Parameters: key to MBC observation (contamination grade): −: no bacteria was observed on the plates; +: a trace of contamination was observed (<10 colonies); ++: light contamination was observed (>100 colonies); +++: heavy contamination was observed (continuous smear of growth)
Settings: 24 hours at 37° C.
Description: The minimum bactericidal concentration (MBC) values reported herein were determined using Pseudomonas aeruginosa (P. aeruginosa), which is a gram-negative pathogen that can cause severe acute and chronic infections. The MBC is the lowest biocide or biocide combination concentration that kills 100% of the tested bacteria. The cultures of P. aeruginosa were grown for 24 hours in Letheen Broth before treatment with each biocide (e.g., copper-containing glass particles or organic co-biocide) or biocide combination (e.g., copper-containing glass particles and an organic co-biocide). A stock copper-containing glass particle dispersion containing 10 wt % copper-containing glass particles and 1.5% hydoxyethylcellulose (HEC) thickener (Natrosol™ Plus 330 PA) was prepared for serial dilution in thickened Letheen Broth (Letheen Broth containing 1.5 wt % HEC thickener) to achieve the desired test concentrations. A stock organic co-biocide or biocide combination dispersion was prepared by combining 5 grams of a 1 wt % dispersion of each organic co-biocide or biocide combination in 1 wt % HEC thickener for serial dilution to achieve the desired test concentrations. 1000 μL of the dispersion of interest was added to a microcentrifuge tube (referred to as “tube 1”). Serial dilution continued with the dilution of 500 μL of the dispersion from tube 1 with 500 μL of thickened Letheen Broth (“tube 2”). Serial dilutions were continued in this manner […] (tube 3 to tube 10). Tube 11 contained 500 μL of thickened Letheen Broth as a “broth blank.” 50 μL of P. aeruginosa was transferred directly from culture into each of tubes 1-11 and the tubes were incubated at 37° C. for 24 hours. At the end of the incubation period, each tube 1-11 was plated and the plates were incubated at 37° C. for 24 hours. At the end of the incubation period, the plates were removed and the colonies on each plate were counted and recorded.
The number of colonies remaining after treatment was determined for serial dilutions of 3 different organic biocides alone and in combination with copper-containing glass particles. Example 1A was treated with serial dilutions of Nuosept® 95 Preservative, which contains a mixture of 5-hydroxymethyl-1-aza-3,7-dioxabicyclo-(3.3.0) octane, 5-hydroxymethoxymethyl-1-aza-3,7-dioxabicyclo-(3.3.0) octane, and 5-hydroxypoly(methyleneoxy)methyl-1-aza-3,7-dioxabicyclo-(3.3.0) octane. Examples 1B and 1C were treated with serial dilutions of a 50:50 mixture and a 25:75 mixture, respectively, of Nuosept® 95 Preservative and copper-containing glass particles. Example 2A was treated with serial dilutions of benzisothiazolinone (BIT). Examples 2B and 2C were treated with serial dilutions of a 50:50 mixture and a 25:75 mixture, respectively, of BIT and copper-containing glass particles. Example 3A was treated with serial dilutions of Bronopol. Examples 3B and 3C were treated with serial dilutions of a 50:50 mixture and a 25:75 mixture, respectively, of Bronopol and copper-containing glass particles. Examples 4A and 4B were duplicate samples treated with serial dilutions of the copper-containing glass particles.
For each Example 1A-C, 2A-C, 3A-C, and 4A-B, 1000 μL of the dispersion of interest, the stock organic co-biocide dispersion, the stock copper-containing glass particle dispersion, or the indicated ratio of each dispersion, was added to a microcentrifuge tube (referred to as “tube 1”). 500 μL of the dispersion from tube 1 was diluted with 500 μL of thickened Letheen Broth (“tube 2”). Serial dilutions with thickened Letheen Broth were prepared up to tube 10. Tube 11 contained 500 μL of thickened Letheen Broth as a “broth blank.” 50 μL of P. aeruginosa was transferred directly from culture into each of tubes 1-11 and the tubes were incubated at 37° C. for 24 hours. At the end of the incubation period, each tube 1-11 was plated and the plates were incubated 37° C. for 24 hours. […]

[1] = Biocide Conc. 3.91 ppm (tube 10)
[2] = Biocide Conc. 7.81 ppm (tube 9)
[3] = Biocide Conc. 15.63 ppm (tube 8)
[4] = Biocide Conc. 31.25 ppm (tube 7)
[5] = Biocide Conc. 62.5 ppm (tube 6)
[6] = Biocide Conc. 1000 ppm (tube 2)
[7] = Biocide Conc. 2000 ppm (tube 1)

Compound | MBC observation (contamination grade) [1] | colony count [1] | MBC observation (contamination grade) [2] | colony count [2] | MBC observation (contamination grade) [3] | colony count [3] | MBC observation (contamination grade) [4] | colony count [4] [colonies] | MBC observation (contamination grade) [5] | colony count [5] [colonies] | MBC observation (contamination grade) (Biocide Conc. 125 ppm (tube 5)) | colony count (Biocide Conc. 125 ppm (tube 5)) [colonies] | MBC observation (contamination grade) (Biocide Conc. 250 ppm (tube 4)) | colony count (Biocide Conc. 250 ppm (tube 4)) [colonies] | MBC observation (contamination grade) (Biocide Conc. 500 ppm (tube 3)) | colony count (Biocide Conc. 500 ppm (tube 3)) [colonies] | MBC observation (contamination grade) [6] | colony count [6] [colonies] | MBC observation (contamination grade) [7] | colony count [7] [colonies]
O=c1[nH]sc2ccccc12 [Ex. 2A, benzisothiazolinone] | +++ | (>1000) colonies | +++ | (>1000) colonies | +++ | (>1000) colonies | ++ (light contamination was observed (>100 colonies)) | 513 | + (a trace of contamination was observed (<10 colonies)) | 35 | − | 0 | − | 0 | − | 0 | − | 0 | − | 0
O=[N+]([O-])C(Br)(CO)CO [Ex. 3A, Bronopol] | +++ | (>1000) colonies | +++ | (>1000) colonies | − | 0 colonies | − | 0 | − | 0 | − | 0 | − | 0 | − | 0 | − | 0 | − | 0
